Data on two molecules can be found in paper PMC11432795, “Mutagenesis of the Peptide Inhibitor of ASIC3 Channel Introduces Binding to Thumb Domain of ASIC1a but Reduces Analgesic Activity” (Marine Drugs, 2024).

Assay [1] concerns human ASIC3 channels. To be noted: ref [18]; cited from earlier work. An excerpt: Peptide Ugr9-1 was originally identified as a negative modulator of human ASIC3 channels. […] Combining comparative analysis, molecular modeling techniques, and structural and functional studies, we generated two novel peptide variants derived from Ugr9-1 capable of modulating both ASIC3 and ASIC1a channels.

The conditions of assay [2]: cited from earlier work. From the text: Selective ligands targeting specific ASIC isoforms are invaluable for structural and functional investigations. Peptide ligands sourced from various animal venoms have emerged as such tools. […] Bot ... || The 29-amino acid peptide Ugr9a-1, isolated from the venom of the northern sea anemone Urticina grebelnyi, represents a structural class of toxins termed “boundless β-hairpin”. […] While the significant involvement of ASIC3 channels in acid-induced, chronic neuropathic and inflammatory pain has been extensively reported, the role of ASIC1a remains less clear.

The target in assay [3] is T1, rat ASIC1a/3 heteromeric channels (Rattus norvegicus, UniProt O35240+P55926).
T1 construct: expressed in transfected cells; host or cells: Xenopus laevis oocytes co-injected with ASIC1a and ASIC3 mRNA (1:5)
T1 sequence (P55926 1-526): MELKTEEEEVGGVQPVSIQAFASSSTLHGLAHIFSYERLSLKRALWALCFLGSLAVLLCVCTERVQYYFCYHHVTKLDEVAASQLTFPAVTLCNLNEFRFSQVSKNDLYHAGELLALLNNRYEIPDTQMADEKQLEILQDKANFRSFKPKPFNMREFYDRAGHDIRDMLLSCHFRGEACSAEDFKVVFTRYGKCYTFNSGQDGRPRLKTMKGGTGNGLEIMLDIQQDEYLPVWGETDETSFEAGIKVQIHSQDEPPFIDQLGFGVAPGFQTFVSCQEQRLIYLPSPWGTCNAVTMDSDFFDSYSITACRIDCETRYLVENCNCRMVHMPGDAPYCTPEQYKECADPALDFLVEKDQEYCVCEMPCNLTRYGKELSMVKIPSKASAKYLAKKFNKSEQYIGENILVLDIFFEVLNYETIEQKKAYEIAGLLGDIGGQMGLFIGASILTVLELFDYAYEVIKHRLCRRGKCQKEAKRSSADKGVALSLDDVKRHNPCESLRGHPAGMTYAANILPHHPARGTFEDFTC
T1 sequence (O35240 1-533): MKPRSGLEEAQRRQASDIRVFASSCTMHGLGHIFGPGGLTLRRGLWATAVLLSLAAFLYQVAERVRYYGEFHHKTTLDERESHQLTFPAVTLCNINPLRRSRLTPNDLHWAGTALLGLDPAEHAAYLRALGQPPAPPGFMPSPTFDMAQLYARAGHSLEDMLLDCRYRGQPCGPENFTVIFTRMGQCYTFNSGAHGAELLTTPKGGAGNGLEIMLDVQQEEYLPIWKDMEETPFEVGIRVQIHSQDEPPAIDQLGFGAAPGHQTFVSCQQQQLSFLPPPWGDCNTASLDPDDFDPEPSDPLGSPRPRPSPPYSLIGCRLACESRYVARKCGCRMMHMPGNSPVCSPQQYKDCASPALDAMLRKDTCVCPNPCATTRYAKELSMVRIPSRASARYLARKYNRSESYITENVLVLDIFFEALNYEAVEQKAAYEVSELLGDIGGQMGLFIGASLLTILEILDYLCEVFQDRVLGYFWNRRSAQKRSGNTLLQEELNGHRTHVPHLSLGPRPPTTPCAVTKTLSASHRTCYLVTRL
Put plainly: Two-electrode voltage clamp, rat ASIC1a/3 heteromeric channels in X. laevis oocytes. The class given is cell-based. From the text:
Figure 4 The effect of the mutant peptide A23K on rat heteromeric ASIC1a/3 channels. […] The depicted currents were induced by a pH 5.5 stimulus following a conditioning pH of 7.4, with the peptide applied for 30 s before the pH stimulus. (B) Dose–response curve for the inhibitory effect of the mutant peptide. Each data point represents data from 6 cells. Data are presented as mean ± S.E.M.
A small portion of the ovary was isolated from frogs under anesthesia induced by a 0.17% solution of procaine methanesulphonate (MS222) (Sigma), followed by treatment with collagenase (1 mg/mL) at room temperature for 2 h. Oocytes at stages IV and V, devoid of follicular membranes, were transferred to ND-96 medium (containing 96 mM NaCl, 5 mM HEPES, 2 mM KCl, 1.8 mM CaCl2, 1 mM MgCl2, pH 7.4). mRNA synthesis was performed from pcDNA3.1 vectors (Invitrogen, Carlsbad, CA, USA) containing the rat ASIC3 gene, as well as pCI vectors containing genes for rat ASIC1a, its mutant analogues, and ASIC1b. mRNA (2.5–10 ng) was then injected into the oocytes. For the ASIC1a/3 heteromeric channels, the mRNA encoding the ASIC1a and ASIC3 subunits were injected in a 1:5 ratio, respectively. Subsequently, the oocytes were incubated for 2–3 days at a temperature of 17–19 °C in ND96 medium supplemented with gentamicin and streptomycin (20 µg/mL each).
Whole-cell electrophysiological recordings of ASIC channels were conducted using a two-electrode voltage-clamp setup. Microelectrodes were filled with 3 M KCl. Recordings from oocytes were carried out at a holding potential of −50 mV, with data filtered at 10 Hz and sampled at a rate of 100 Hz using an L780M ADC (LCard, Moscow, Russia). The synchronized delivery of solutions into the chamber and recording of electrophysiological results were carried out using in-house software v.2. Activation of ASIC channels occurred through rapid pH changes in the solution, achieved by replacing the working solution in the chamber with ND96-based solutions at varying pH levels. Specifically, HEPES was substituted with 10 mM MES for pH 5.5–6.5 and MOPS for pH 6.7–7.0.
Fresh peptide solutions were meticulously prepared in ND96 buffer with a pH of 7.43 immediately before experiments, with strict control over the pH levels. Peptides were applied for 30 s at a conditioning pH of 7.43 before acid stimulation of the channel. The interval between applications was maintained at a minimum of 1.5 to 2 min.
Electrophysiological data analysis was conducted using OriginPro 2018 software (OriginLab, Northampton, MA, USA). Dose–response relationships for Ugr9a-1, S16K, and A23K peptides were fitted using a Hill function: F1(x) = A − A/(1 + (x/IC50)^nH), where F1(x) represents the amplitude of the current at concentration x of the peptide, A is the maximum amplitude of the current, IC50 is the half-maximum inhibitory concentration of the peptide, and nH is the Hill coefficient.

Positions of bridges follow the written chain, without caps; N, C: chain ends. Residues, ends and D or L forms follow the SMILES beside them.

`CC[C@H](C)[C@H](N)C(=O)N[C@@H](CO)C(=O)N[C@H](C(=O)N[C@@H](CC(=O)O)C(=O)N1CCC[C@H]1C(=O)N1CCC[C@H]1C(=O)N[C@H]1CSSC[C@@H]2NC(=O)[C@H](CC(N)=O)NC(=O)CNC(=O)[C@H](CO)NC(=O)CNC(=O)[C@H](CC(=O)O)NC(=O)[C@H](CCCNC(=N)N)NC(=O)[C@H](Cc3c[nH]cn3)NC(=O)[C@H](Cc3ccc(O)cc3)NC(=O)[C@H](CSSC[C@@H](C(=O)NCC(=O)N[C@@H](C)C(=O)N[C@H](C(=O)O)C(C)C)NC(=O)CNC(=O)[C@H](Cc3ccc(O)cc3)NC(=O)[C@H](C)NC(=O)[C@H](CC(=O)O)NC(=O)[C@H](Cc3ccc(O)cc3)NC(=O)[C@H](C(C)C)NC2=O)NC(=O)[C@H](Cc2ccccc2)NC(=O)[C@H](CCCNC(=N)N)NC1=O)[C@@H](C)CC` [Ugr9-1] (H-ISIDPPCRFCYHRDGSGNCVYDAYGCGAV-OH; disulfide 7-19, 10-26): the IC50 (in general, the concentration at which inhibition is half-maximal) in assay [1] is 10 µM. For the same molecule, the “effect on acid-induced and inflammatory pain” value in assay [2] (mouse models, ref [18],[19],[20]) was “promising results in mitigating acid-induced and inflammatory pain”. For the same molecule, the “effect on acid-induced and CFA-induced inflammatory pain” value in assay [2] (range of doses, ref [18],[20]) is “attenuates acid-induced and CFA-induced inflammatory pain in mice across a range of doses”.
`CC[C@H](C)[C@H](N)C(=O)N[C@@H](CO)C(=O)N[C@H](C(=O)N[C@@H](CC(=O)O)C(=O)N1CCC[C@H]1C(=O)N1CCC[C@H]1C(=O)N[C@H]1CSSC[C@@H]2NC(=O)[C@H](CC(N)=O)NC(=O)CNC(=O)[C@H](CO)NC(=O)CNC(=O)[C@H](CC(=O)O)NC(=O)[C@H](CCCNC(=N)N)NC(=O)[C@H](Cc3c[nH]cn3)NC(=O)[C@H](Cc3ccc(O)cc3)NC(=O)[C@H](CSSC[C@@H](C(=O)NCC(=O)N[C@@H](C)C(=O)N[C@H](C(=O)O)C(C)C)NC(=O)CNC(=O)[C@H](Cc3ccc(O)cc3)NC(=O)[C@H](CCCCN)NC(=O)[C@H](CC(=O)O)NC(=O)[C@H](Cc3ccc(O)cc3)NC(=O)[C@H](C(C)C)NC2=O)NC(=O)[C@H](Cc2ccccc2)NC(=O)[C@H](CCCNC(=N)N)NC1=O)[C@@H](C)CC` [A23K] (H-ISIDPPCRFCYHRDGSGNCVYDKYGCGAV-OH; disulfide 7-19, 10-26): in assay [3] (ASIC1a/3 versus homomeric ASIC1a), the “inhibitory effect on heteromeric channels compared to homomeric ASIC1a” value is given as “approximately 1.6 -fold”. For the same molecule, the “inhibitory effect on heteromeric channels compared to homomeric ASIC3” value in assay [3] (ASIC1a/3 versus homomeric ASIC3) is given as ~2.2 -fold. Also, the nH in assay [3] (inhibition of rat ASIC1a/3, pH 5.5 stimulus, conditioning pH 7.4, mean ± S.E.M., 6 cells) is 1.6 ± 0.2. The molecule also registered an IC50 in assay [3] (rat ASIC1a/3 heteromer, X. laevis oocytes (mRNA 1:5), pH 5.5 stimulus, conditioning pH 7.4, peptide 30 s, mean ± S.E.M., 6 cells) of 4.2 ± 0.6 µM. Also, in assay [3] (washout after peptide), the “wash procedure required to restore ASIC1a/3 function” value was “extended wash procedure required to restore ASIC1a/3 function”.
